The target in this assay is T1, KRas-G12D (Homo sapiens, UniProt P01116, G12D).
T1 construct: insert the HiBiT tag onto the N-terminus of one or more of the endogenous KRas alleles; host or cells: AsPC-1 HiBiT-KRasG12D knock-in clone (one tagged allele, two untagged KRasG12D alleles)
Nature of the assay: HiBiT Degradation Assay (G12D), AsPC-1 HiBiT-KRasG12D cells, 24 hr. Type of assay: cell-based. As to conditions: for Dmax: ASPC1, AsPC-1 cells, maximum degradation observed; for DC50: AsPC-1 cells. The method in brief:
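Degradation was read after 24 hr compound exposure (0.5% DMSO, 37° C) by Nano-Glo HiBiT lytic luminescence in AsPC-1 cells carrying a HiBiT tag on one of three KRasG12D alleles. Signal relative to DMSO gave DC50 and Dmax by 4-parameter fit; alamar blue fluorescence monitored cytotoxicity.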
For orientation: With HiBiT, luminescence reflects the tagged protein that the partner subunit can reach.

This note sets out measurements from patent US12448399B2, “Cereblon-based KRAS degrading PROTACs and uses related thereto” (Arvinas Operations, Inc., priority 2023, dated 2025).

T1 sequence (P01116 1-188 isoform P01116-2 G12D): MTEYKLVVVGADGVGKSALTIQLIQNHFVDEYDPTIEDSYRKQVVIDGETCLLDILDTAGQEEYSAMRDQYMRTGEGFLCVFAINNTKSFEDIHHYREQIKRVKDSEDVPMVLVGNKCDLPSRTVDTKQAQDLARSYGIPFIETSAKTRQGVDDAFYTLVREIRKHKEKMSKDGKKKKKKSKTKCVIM

Usually Dmax stands for the greatest extent of degradation seen. A high value points to a fuller loss of target. By DC50 is commonly meant the concentration at which degradation of the target reaches its halfway point. A lower DC50 goes with a more potent degrader. In turn, `C#Cc1c(F)ccc2cc(O)cc(-c3ncc4c(N5CC6CCC(C5)N6)nc(OCCN5CCC6(CC5)CCN(CC5CCN(c7cccc8c7CN(C7CCC(=O)NC7=O)C8=O)CC5)CC6)nc4c3F)c12` (stereo not drawn) [Compound 132, 3-(4-{4-[(9-{2-[(4-{3,8-diazabicyclo[3.2.1]octan-3-yl}-7-(8-ethynyl-7-fluoro-3-hydroxynaphthalen-1-yl)-8-fluoropyrido[4,3-d]pyrimidin-2-yl)oxy]ethyl}-3,9-diazaspiro[5.5]undecan-3-yl)methyl]piperidin-1-yl}-1-oxo-2,3-dihydro-1H-isoindol-2-yl)piperidine-2,6-dione] had a Dmax greater than 70% and a DC50 of less than 5.1 µM.

Compound `C#Cc1c(F)ccc2cc(O)cc(-c3ncc4c(N5CC6CCC(C5)N6)nc(OCCN5CCC(CC6CCN(CC7CCN(c8cccc9c8n(C)c(=O)n9C8CCC(=O)NC8=O)CC7)CC6)CC5)nc4c3F)c12` (stereo not drawn) [Compound 133, 3-{4-[4-({4-[(1-{2-[(4-{3,8-diazabicyclo[3.2.1]octan-3-yl}-7-(8-ethynyl-7-fluoro-3-hydroxynaphthalen-1-yl)-8-fluoropyrido[4,3-d]pyrimidin-2-yl)oxy]ethyl}piperidin-4-yl)methyl]piperidin-1-yl}methyl)piperidin-1-yl]-3-methyl-2-oxo-2,3-dihydro-1H-1,3-benzodiazol-1-yl}piperidine-2,6-dione] showed a Dmax greater than 70% and a DC50 of less than 5.1 µM. On to `C#Cc1c(F)ccc2cc(O)cc(-c3nc(N4CC5CCC(C4)N5)c4cnc(OCCN5CCC6(CC5)CCN(CC5CCN(c7ccc8c(c7)CN(C7CCC(=O)NC7=O)C8=O)CC5)CC6)nc4c3F)c12` (stereo not drawn) [Compound 134], for which the Dmax was greater than 70% and the DC50 is less than 5.1 µM. `C#Cc1c(F)ccc2cc(O)cc(-c3ncc4c(N5CC6CCC(C5)N6)nc(OCCN5CCC6(CC5)CN(CC5CCN(c7cccc8c7CN(C7CCC(=O)NC7=O)C8=O)CC5)C6)nc4c3F)c12` (stereo not drawn) [Compound 135, 3-(4-{4-[(7-{2-[(4-{3,8-diazabicyclo[3.2.1]octan-3-yl}-7-(8-ethynyl-7-fluoro-3-hydroxynaphthalen-1-yl)-8-fluoropyrido[4,3-d]pyrimidin-2-yl)oxy]ethyl}-2,7-diazaspiro[3.5]nonan-2-yl)methyl]piperidin-1-yl}-1-oxo-2,3-dihydro-1H-isoindol-2-yl)piperidine-2,6-dione]: the DC50 was in the range of 0.25 to 1 µM. `C#Cc1c(F)ccc2cc(O)cc(-c3ncc4c(N5CC6CCC(C5)N6)nc(OCCN5CCC(CN6CCN(CC7CCN(c8cccc9c8CN(C8CCC(=O)NC8=O)C9=O)CC7)CC6)CC5)nc4c3F)c12` (stereo not drawn) [Compound 136, 3-{4-[4-({4-[(1-{2-[(4-{3,8-diazabicyclo[3.2.1]octan-3-yl}-7-(8-ethynyl-7-fluoro-3-hydroxynaphthalen-1-yl)-8-fluoropyrido[4,3-d]pyrimidin-2-yl)oxy]ethyl}piperidin-4-yl)methyl]piperazin-1-yl}methyl)piperidin-1-yl]-1-oxo-2,3-dihydro-1H-isoindol-2-yl}piperidine-2,6-dione] yielded a Dmax greater than 70% and a DC50 of less than 5.1 µM. Compound `CCc1c(F)ccc2cc(O)cc(-c3ncc4c(N5CC6CCC(C5)N6)nc(OCCN5CCC(CC6CCN(CC7CCN(c8cccc9c8CN(C8CCC(=O)NC8=O)C9=O)CC7)CC6)CC5)nc4c3F)c12` (stereo not drawn) [Compound 137, 3-{4-[4-({4-[(1-{2-[(4-{3,8-diazabicyclo[3.2.1]octan-3-yl}-7-(8-ethyl-7-fluoro-3-hydroxynaphthalen-1-yl)-8-fluoropyrido[4,3-d]pyrimidin-2-yl)oxy]ethyl}piperidin-4-yl)methyl]piperidin-1-yl}methyl)piperidin-1-yl]-1-oxo-2,3-dihydro-1H-isoindol-2-yl}piperidine-2,6-dione] showed a DC50 of less than 5.1 µM. Compound `C#Cc1c(F)ccc2cc(O)cc(-c3ncc4c(N5CC6CCC(C5)N6)nc(OCCN5CCC(CC6CCN(CC7CCN(c8ccc9c(c8)CN(C8CCC(=O)NC8=O)C9=O)CC7)CC6)CC5)nc4c3F)c12` (stereo not drawn) [Compound 138] came in with a Dmax greater than 70% and a DC50 of less than 5.1 µM.

On to `CCc1cccc2cc(O)cc(-c3ncc4c(N5CC6CCC(C5)N6)nc(OC[C@@H]5C[C@@H](OC6CCN(CC7CCN(c8cccc9c8CN(C8CCC(=O)NC8=O)C9=O)CC7)CC6)CN5C)nc4c3F)c12` (stereo partly drawn) [Compound 139, 3-(4-{4-[(4-{[(3R,5S)-5-{[(4-{3,8-diazabicyclo[3.2.1]octan-3-yl}-7-(8-ethyl-3-hydroxynaphthalen-1-yl)-8-fluoropyrido[4,3-d]pyrimidin-2-yl)oxy]methyl}-1-methylpyrrolidin-3-yl]oxy}piperidin-1-yl)methyl]piperidin-1-yl}-1-oxo-2,3-dihydro-1H-isoindol-2-yl)piperidine-2,6-dione], for which the Dmax is greater than 70% and the DC50 was less than 5.1 µM. In turn, `C#Cc1c(F)ccc2cc(O)cc(-c3ncc4c(N5CC6CCC(C5)N6)nc(OCCN5CCC(CN6CC7(CCN(c8cccc9c8CN(C8CCC(=O)NC8=O)C9=O)CC7)C6)CC5)nc4c3F)c12` (stereo not drawn) [Compound 140, 3-(4-{2-[(1-{2-[(4-{3,8-diazabicyclo[3.2.1]octan-3-yl}-7-(8-ethynyl-7-fluoro-3-hydroxynaphthalen-1-yl)-8-fluoropyrido[4,3-d]pyrimidin-2-yl)oxy]ethyl}piperidin-4-yl)methyl]-2,7-diazaspiro[3.5]nonan-7-yl}-1-oxo-2,3-dihydro-1H-isoindol-2-yl)piperidine-2,6-dione] gave a DC50 of 0.25 to 1 µM. With `CCc1cccc2cc(O)cc(-c3ncc4c(N5CC6CCC(C5)N6)nc(OCCN5CCC6(CC5)CN(c5cccc7c5CN(C5CCC(=O)NC5=O)C7=O)C6)nc4c3F)c12` (stereo not drawn) [Compound 141], the DC50 was greater than 1 µM.

Take `O=C1CCC(N2Cc3c(ccc(N4CCC(CN5CCC(CC6CCN(CCOc7nc(N8CC9CCC(C8)N9)c8cnc(-c9cc(O)cc(Cl)c9C9CC9)c(F)c8n7)CC6)CC5)CC4)c3F)C2=O)C(=O)N1` (stereo not drawn) [Compound 142]: the Dmax was greater than 70% and the DC50 was less than 5.1 µM. `C#Cc1c(F)ccc2cccc(-c3ncc4c(N5CC6CCC(C5)N6)nc(OC[C@]56CCCN5[C@H](CN5CCN(CC7CCN(c8ccc9c(c8)CN(C8CCC(=O)NC8=O)C9=O)CC7)CC5)CC6)nc4c3F)c12` (stereo partly drawn) [Compound 143] showed a DC50 of less than 5.1 µM. With `C#Cc1c(F)ccc2cccc(-c3ncc4c(N5CC6CCC(C5)N6)nc(OC[C@@H]5C[C@@H](OC6CCN(CC7CCN(c8ccc9c(c8)CN(C8CCC(=O)NC8=O)C9=O)CC7)CC6)CN5C)nc4c3F)c12` (stereo partly drawn) [Compound 144], the DC50 was less than 5.1 µM.

As to `C#Cc1c(F)ccc2cccc(-c3ncc4c(N5CC6CCC(C5)N6)nc(OC[C@]56CCCN5[C@H](CN5CCN(c7ccc8c(c7)CN(C7CCC(=O)NC7=O)C8=O)CC5)CC6)nc4c3F)c12` (stereo partly drawn) [Compound 145], the Dmax was greater than 70% and the DC50 was 0.1 to 5.25 µM.

For `C#Cc1c(F)ccc2cccc(-c3ncc4c(N5CC6CCC(C5)N6)nc(OC[C@@]56CCCN5[C@H](CN5CCN(c7ccc8c(c7)CN(C7CCC(=O)NC7=O)C8=O)CC5)CC6)nc4c3F)c12` (stereo partly drawn) [Compound 146], the DC50 fell in the range of 0.25 to 1 µM. The compound `C#Cc1c(F)ccc2cccc(-c3ncc4c(N5CC6CCC(C5)N6)nc(OC[C@@]56CCCN5[C@H](CN5CCN(CC7CCN(c8ccc9c(c8)CN(C8CCC(=O)NC8=O)C9=O)CC7)CC5)CC6)nc4c3F)c12` (stereo partly drawn) [Compound 147] registered a Dmax greater than 70% and a DC50 of less than 5.1 µM. On to `C#Cc1c(F)ccc2cc(O)cc(-c3ncc4c(N5CC6CCC(C5)N6)nc(OCCN5CCC(CN6CCN(CC7CCN(c8cc(C)c9c(c8F)CN(C8CCC(=O)NC8=O)C9=O)CC7)CC6)CC5)nc4c3F)c12` (stereo not drawn) [Compound 148, 3-{5-[4-({4-[(1-{2-[(4-{3,8-diazabicyclo[3.2.1]octan-3-yl}-7-(8-ethynyl-7-fluoro-3-hydroxynaphthalen-1-yl)-8-fluoropyrido[4,3-d]pyrimidin-2-yl)oxy]ethyl}piperidin-4-yl)methyl]piperazin-1-yl}methyl)piperidin-1-yl]-4-fluoro-7-methyl-1-oxo-2,3-dihydro-1H-isoindol-2-yl}piperidine-2,6-dione], for which the Dmax was greater than 70% and the DC50 is less than 5.1 µM. The like results for `C#Cc1c(F)ccc2cc(O)cc(-c3ncc4c(N5CC6CCC(C5)N6)nc(OCCN5CCC(CC6CCN(CC7CCN(c8cc(C)c9c(c8F)CN(C8CCC(=O)NC8=O)C9=O)CC7)CC6)CC5)nc4c3F)c12` (stereo not drawn) [Compound 149, 3-{5-[4-({4-[(1-{2-[(4-{3,8-diazabicyclo[3.2.1]octan-3-yl}-7-(8-ethynyl-7-fluoro-3-hydroxynaphthalen-1-yl)-8-fluoropyrido[4,3-d]pyrimidin-2-yl)oxy]ethyl}piperidin-4-yl)methyl]piperidin-1-yl}methyl)piperidin-1-yl]-4-fluoro-7-methyl-1-oxo-2,3-dihydro-1H-isoindol-2-yl}piperidine-2,6-dione] were, in that order, greater than 70% and less than 5.1 µM.

In the case of `C#Cc1c(F)ccc2cc(O)cc(-c3ncc4c(N5CC6CCC(C5)N6)nc(OCCN5CCC6(CC5)CN(CC5CCN(c7cc(C)c8c(c7F)CN(C7CCC(=O)NC7=O)C8=O)CC5)C6)nc4c3F)c12` (stereo not drawn) [Compound 150], the DC50 is less than 5.1 µM. The compound `C#Cc1c(F)ccc2cc(O)cc(-c3ncc4c(N5CC6CCC(C5)N6)nc(OC[C@@H]5C[C@@H](OC6CCN(CC7CCN(c8cc(C)c9c(c8F)CN(C8CCC(=O)NC8=O)C9=O)CC7)CC6)CN5C)nc4c3F)c12` (stereo partly drawn) [Compound 151, 3-(5-{4-[(4-{[(3R,5S)-5-{[(4-{3,8-diazabicyclo[3.2.1]octan-3-yl}-7-(8-ethynyl-7-fluoro-3-hydroxynaphthalen-1-yl)-8-fluoropyrido[4,3-d]pyrimidin-2-yl)oxy]methyl}-1-methylpyrrolidin-3-yl]oxy}piperidin-1-yl)methyl]piperidin-1-yl}-4-fluoro-7-methyl-1-oxo-2,3-dihydro-1H-isoindol-2-yl)piperidine-2,6-dione] displayed a Dmax greater than 70% and a DC50 of less than 5.1 µM. Compound `C#Cc1c(F)ccc2cc(O)cc(-c3ccc4c(N5CC6CCC(C5)N6)nc(OCCN5CCC(CC6CCN(CC7CCN(c8ccc9c(c8F)CN(C8CCC(=O)NC8=O)C9=O)CC7)CC6)CC5)nc4c3F)c12` (stereo not drawn) [Compound 152] showed a DC50 of less than 5.1 µM.
